Here are results for eleven molecules from US7176185B2, “Short peptide carrier system for cellular delivery of agent” (TSRL, Inc., priority 2003, dated 2007).

SMILES strings stand for the structures.

One may read the Ki as a measure of affinity in units of concentration, obtained from inhibition or displacement.

The conditions of data set [1]: literature value (Bretschneider et al. 1999); 'parenteral' marks drugs given parenterally; cited from earlier work.
In data set [2] the target is T1, hpept1 dipeptide transporter (Homo sapiens, UniProt P46059).
T1 construct: expressed in transfected cells; host or cells: DC5 = human medulloblastoma cell line Dpar transfected with a eukaryotic expression plasmid holding the hPept1 gene
T1 sequence (P46059 1-708): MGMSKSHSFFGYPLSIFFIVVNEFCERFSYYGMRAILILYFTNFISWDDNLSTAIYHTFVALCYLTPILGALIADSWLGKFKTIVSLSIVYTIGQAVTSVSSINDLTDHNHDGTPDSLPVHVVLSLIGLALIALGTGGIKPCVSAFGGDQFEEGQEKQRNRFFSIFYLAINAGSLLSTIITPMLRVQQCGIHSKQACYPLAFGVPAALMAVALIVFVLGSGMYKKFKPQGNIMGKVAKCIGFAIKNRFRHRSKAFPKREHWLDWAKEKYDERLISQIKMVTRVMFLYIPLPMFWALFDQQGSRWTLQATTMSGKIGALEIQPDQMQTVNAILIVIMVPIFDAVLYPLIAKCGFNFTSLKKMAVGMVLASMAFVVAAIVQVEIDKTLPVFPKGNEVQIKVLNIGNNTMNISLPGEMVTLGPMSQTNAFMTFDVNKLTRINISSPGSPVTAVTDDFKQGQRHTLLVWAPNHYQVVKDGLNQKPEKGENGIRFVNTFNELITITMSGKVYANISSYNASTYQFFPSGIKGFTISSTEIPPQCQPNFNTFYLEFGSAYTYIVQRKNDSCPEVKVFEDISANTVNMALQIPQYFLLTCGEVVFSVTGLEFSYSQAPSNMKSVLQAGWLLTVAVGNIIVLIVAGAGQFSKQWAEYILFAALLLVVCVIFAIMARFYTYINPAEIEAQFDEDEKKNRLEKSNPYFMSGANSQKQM
In words: Inhibition of 3H-Gly-Sar uptake in DC5 cell line (Ki determination). The data set is classed as cell-based. The conditions noted are these: 50 uM 3H-Gly-Sar, 10 min, 37° C., unit inferred, mM, read-out: TSRL - Ki. The source says:
The developed system functions as an initial screen for interaction with the dipeptide transporter by measuring the ability of a given test compound to inhibit the uptake of the marker dipeptide ^3H-Gly-Sar. Using this system in a 96-well format, one can rapidly screen compounds for their ability to bind to the dipeptide transporter by measuring the inhibition constant (Ki) of the compound against Gly-Sar uptake. In this assay, a positive result indicates binding, but not necessarily transport. Positive results are assessed for actual transport in conventional uptake assays.
The inhibitory Ki for a given compound is determined in DC5 cell line using the radioactive substrate 3H-glycine-sarcosine (GS). DC5 cells were plated (12,000 cells/well) in 96-well tissue culture plates (Falcon) and allowed to grow for 2 days. The cells were washed once with 200 ul of uptake buffer and aspirated. The plates were cooled to 4° C. and 25 ul of uptake buffer containing 50 uM Gly-Sar (0.5 uCi/ml) was added. The uptake buffer also contained the test β-lactam antibiotic, Cefaclor, over a range of concentrations. Uptake was initiated by placing the plate in a shaker water bath (37° C.) and terminated at 10 min by rapid washing with multiple changes of 4° C. PBS (Sigma). The radioactive peptide was extracted from the cell layer with 200 ul of methanol:water (1:1) and counted in 4 ml of CytoScint ES™ scintillation cocktail (ICN). Non-linear regression analysis of the data was used to determine the IC50 using the solver function in Microsoft Excel spreadsheets.

Another data set concerns the target T2, hPepT1 (Homo sapiens, UniProt P46059).
T2 construct: expressed in transfected cells; host or cells: DC5 = human medulloblastoma cell line Dpar transfected with a eukaryotic expression plasmid holding the hPept1 gene
T2 sequence (P46059 1-708): T1 sequence (P46059 1-708)
Briefly: Inhibition of LALA uptake into DC5 cells by competitive substrates. The class given is cell-based. As to conditions: 30 minutes; for Inhibition of LALA uptake (FIG. 7, specificity): 25 μM LALA, 20 mM dipeptide or 40 mM amino acid. The method, then:
After 30 minutes the cells are washed and the fluorescence measured in the cells.
DC5 and Dpar cells are incubated in transport buffer and the indicated concentrations of LALA added ? and (¦), respectively. These experiments are repeated in the presence of 20 mM Gly-Pro for DC5 (⋄) and Dpar (?). After 30 minutes, the cells are washed and processed for fluorescent determination. […] After 30 minutes the cells are washed and the fluorescence measured in the cells. […] Fluorescence imagining of LALA in DC5 cells is shown in FIG. 8, where cells on a polylysine coated slide are incubated in the transport buffer with 50 μM LALA in the presence (right image) or absence (left image) the hPepT1 competitive inhibitor Gly-Pro (20 mM) for 20 minutes at room temperature. Cells are washed with cold PBS and viewed with an inverted microscope and imaged with a digital camera, with the images being at the same magnification and exposure time.

Data set [3] has as its target T3, DC5 cell line overexpressing HPEPT1 (Homo sapiens, UniProt P46059).
T3 construct: expressed in transfected cells; host or cells: DC5 = human medulloblastoma cell line Dpar transfected with a eukaryotic expression plasmid holding the hPept1 gene
T3 sequence (P46059 1-708): T1 sequence (P46059 1-708)
Briefly: LALA fluorescent uptake in DC5 cells. The data set is classed as cell-based. The conditions noted are these: transport buffer, 30 minutes, fluorescence. As to the method: (§1) FIG. 6 is a graph showing the uptake of LALA in DC5 and Dpar as a function of LALA concentration. DC5 and Dpar cells are incubated in transport buffer and the indicated concentrations of LALA added ? and (¦), respectively. These experiments are repeated in the presence of 20 mM Gly-Pro for DC5 ? and Dpar (?). After 30 minutes, the cells are washed and processed for fluorescent determination.
[…] and not Dpar specifically uptake LALA. DC5 and Dpar cells are incubated in transport buffer and the indicated concentrations of LALA added ? and (¦), respectively. These experiments are repeated in the presence of 20 mM Gly-Pro for DC5 (⋄) and Dpar (?). After 30 minutes, the cells are washed and processed for fluorescent determination. […] After 30 minutes the cells are washed and the fluorescence measured in the cells. […] Because the marker probe is fluorescent, the system is amenable to more rapid throughput, through the use of automated fluorescent plate readers. Fluorescence imagining of LALA in DC5 cells is shown in FIG. 8, where cells on a polylysine coated slide are incubated in the transport buffer with 50 μM LALA in the presence (right image) or absence (left image) the hPepT1 competitive inhibitor Gly-Pro (20 mM) for 20 minutes at room temperature. […]

Another data set has as its system Dpar cells. Briefly: LALA fluorescent uptake in parental Dpar cells. As to conditions: 30 minutes, fluorescence. The class given is cell-based, human. The method, then: as §1
FIG. 7 is a bar graph showing specificity of LALA uptake. 25 μM of LALA is incubated in the presence 20 mM Gly-Sar ? 20 mM Gly-Pro ? 40 mM phenylalanine ? and 40 mM proline ? in either the DC5 or the Dpar, cell line. After 30 minutes the cells are washed and the fluorescence measured in the cells. […] There is minimal LALA uptake in the parental line Dpar.
[…] and not Dpar specifically uptake LALA. […] After 30 minutes the cells are washed and the fluorescence measured in the cells. […] Because the marker probe is fluorescent, the system is amenable to more rapid throughput, through the use of automated fluorescent plate readers. Fluorescence imagining of LALA in DC5 cells is shown in FIG. 8, where cells on a polylysine coated slide are incubated in the transport buffer with 50 μM LALA in the presence (right image) or absence (left image) the hPepT1 competitive inhibitor Gly-Pro (20 mM) for 20 minutes at room temperature. […]

In the case of `N[C@@H](C(=O)N[C@@H]1C(=O)N2C(C(=O)O)=C(Cl)CS[C@H]12)c1ccccc1` [Cefaclor], in data set [1], the Bioavailability is recorded as 100. Besides, the Ki in data set [2] worked out at 5.39 mM.
With `CC1=C(C(=O)O)N2C(=O)[C@@H](NC(=O)[C@H](N)c3ccc(O)cc3)[C@H]2SC1` [Cefadroxil], in data set [1], the Bioavailability is reported as 100. Also, the Ki in data set [2] was determined as 2.7 mM.
For `Cn1nnnc1SCC1=C(C(=O)O)N2C(=O)[C@@H](NC(=O)[C@H](O)c3ccccc3)[C@H]2SC1` [Cefamandole], the Bioavailability in data set [1] is less than 1 parenteral. Also, the inhibition constant (Ki) in data set [2] turned out to be 16.4 mM.
Consider `CO/N=C(\C(=O)N[C@@H]1C(=O)N2C(C(=O)O)=C(CSc3nc(=O)c(=O)[nH]n3C)CS[C@H]12)c1csc(N)n1` [Ceftriaxon], for which the Bioavailability in data set [1] is less than 5 parenteral. For the same molecule, in data set [2], the Ki was more than 20 mM.
Take `CO/N=C(\C(=O)N[C@@H]1C(=O)N2C(C(=O)O)=C(COC(N)=O)CS[C@H]12)c1ccco1` [Cefuroxime]: in data set [1], the Bioavailability is less than 1 parenteral. Moreover, in data set [2], the Ki amounted to 23.2 mM.
Turning to `CC(=O)OCC1=C(C(=O)O)N2C(=O)[C@@H](NC(=O)Cc3cccs3)[C@H]2SC1` [Cephalothin], the Bioavailability in data set [1] is less than 5 parenteral. Further, in data set [2], the Ki came to 11.1 mM.
With `CC1=C(C(=O)O)N2C(=O)[C@@H](NC(=O)[C@H](N)C3=CCC=CC3)[C@H]2SC1` [Cephradine], the Bioavailability in data set [1] is 100. Moreover, in data set [2], the inhibition constant Ki was 7.02 mM.
Turning to `NCC(=O)O.O=C(O)[C@@H]1CCCN1` [Gly-Pro, Glycine-Proline], the “Inhibition of LALA uptake (FIG. 7, specificity)” value on hPepT1 was “strongly inhibited”. Moreover, the “Inhibition of LALA uptake (FIGS. 5 and 6)” value at hPepT1 (20 mM Gly-Pro, range of LALA concentrations) is “strongly inhibited”.
With `Cc1c(CC(=O)NCCCCC(NC(=O)C(C)N)C(=O)O)c(=O)oc2cc(N)ccc12` [LALA, L-Ala-Lys-Nε-AMCA], the “LALA uptake in DC5” value in data set [3] was “specifically taken up”. For the same molecule, in the data set on Dpar cells, the “LALA uptake in parental line Dpar” value was “minimal”.
As for `N[C@@H](Cc1ccccc1)C(=O)O` [phenylalanine], the “Inhibition of LALA uptake (FIG. 7, specificity)” value at hPepT1 is on record as “not by amino acids”.
Same read-out and setting: then `O=C(O)[C@@H]1CCCN1` [proline], with “not by amino acids”.
